# Tested on: Mycoplasma Pneumoniae (MP)
# Assay: Inflammatory factors in lung tissue of MP-infected mice (ELISA)
# Format: in vivo, BALB/C mice
# Details: 4 days
# Procedure: […] Each group consisted of 10 mice, with an equal number of males and females. Except for the normal control group, all mice were lightly anesthetized with isoflurane and infected intranasally with Mycoplasma Pneumoniae (50 μl per mouse) for three consecutive days. On the day of infection, each treatment group received nebulized medication once daily for four consecutive days, while the normal control group and model control group received nebulized saline under the same conditions. On the fifth day, the mice were weighed, sacrificed by cervical dislocation, and their lung tissues were dissected, weighed, and used to calculate the lung index and lung index inhibition rate; measure the levels of inflammatory factors in the lung tissue; measure the serum CRP levels; and conduct pathological examinations of the lung tissue. The results were statistically analyzed using the t-test for intergroup comparisons.
# (1) Sample Collection and Storage: Tissue Homogenate Samples: After weighing, lung tissues were collected from 8 mice in each group and stored at −80° C. The MP Fastprep-24 5G Rapid Sample Preparation System was used to homogenize the tissues, followed by centrifugation at […] and 3000 r/min for 10 minutes using a low-temperature high-speed centrifuge. The supernatant was then aspirated, aliquoted, and stored at −80° C. for future use, avoiding repeated freeze-thaw cycles.
# (2) The microplate, which had been equilibrated to room temperature, was removed from the sealed bag. Different concentrations of standards were added to the corresponding wells, with 50 μL per well. For experimental samples, 10 μL of sample was added to each well, followed by 40 μL of diluent. Except for the blank wells, 100 μL of HRP (Horseradish Peroxidase) was added to each well. The reaction wells were sealed with sealing tape and incubated at 37° C. for 1 hour. The plate was then washed with wash buffer four times. After the final wash, the plate was inverted and all residual liquid was patted dry on absorbent paper. 50 μL of both Substrate A and Substrate B were added to each well. The reaction wells were then sealed with sealing tape and incubated at 37° C. for 15 minutes. After that, 50 μL of stop solution was added to each well, and the absorbance at 450 nm was measured using a microplate reader within 15 minutes. The results were then calculated.
compound,measurement,setting,value
COC(=O)C1=CO[C@@H](O[C@@H]2O[C@H](CO[C@@H]3O[C@H](CO)[C@@H](O)[C@H](O)[C@H]3O)[C@@H](O)[C@H](O)[C@H]2O)[C@@H]2C(CO)=CC[C@H]12 [Genipin-1-β-D-gentiobioside],Inflammatory Factor Levels in Lung Tissue IL-1β,37.5 mg/ml inhalation,147.59 ± 41.87 pg/mL
same,Inflammatory Factor Levels in Lung Tissue IL-6,37.5 mg/ml inhalation,150.92 ± 7.65 pg/mL
same,Inflammatory Factor Levels in Lung Tissue TNF-α,37.5 mg/ml inhalation,248.53 ± 93.97 pg/mL
same,Inflammatory Factor Levels in Lung Tissue IL-1β,75 mg/ml inhalation,148.31 ± 10.97 pg/mL
same,Inflammatory Factor Levels in Lung Tissue IL-6,75 mg/ml inhalation,163.92 ± 8.54 pg/mL
same,Inflammatory Factor Levels in Lung Tissue TNF-α,75 mg/ml inhalation,312.79 ± 81.52 pg/mL

# — US20250195553A1, “Use of Genipin-1-B-D-Gentiobioside in Preparation of Drug” (Guizhou Bailing Group Pharmaceutical Co., Ltd., priority 2023, published 2025)
